Test results from patent US8193186B2, “Pyridopyrazines and the use thereof as kinase inhibitors” (AEterna Zentaris GmbH, priority 2003, dated 2012).
Counter-ions that a name gives are not always drawn. Like-named read-outs stand apart in the source and are kept apart here.

Key:
c-Raf-Mek-Erk cascade = experiment: c-Raf-Mek-Erk ELISA (cell-free reconstituted kinase cascade, Erk phosphorylation); assay type: biochemical, human
Protocol: The inhibitory effect on the following human serine/threonine and tyrosine kinases of the compounds of the invention was tested in conventional kinase assays: PKB/Akt1, c-Raf-Mek-Erk, B-Raf-Mek-Erk, Mek-Erk, MAPKs, PDGFRbeta, Flt-3, c-Kit, c-Abl, KDR, FGFR1 and IGF1R. Both the full-length kinases and truncated fragments—but at least the cytoplasmic kinase domains—were employed. The kinases were prepared as recombinant fusion proteins with GST (glutathion S-transferase) or HIS Tag in Sf9 cell culture. Depending on the substrate type, the various kinase reactions were carried out in sandwich ELISA formates or by means of a simple substrate adsorption assay on 96-well Flashplates (Perkin Elmer).
The testing on substances on the c-Raf-Mek-Erk cascade is described in detail below. Selected test results for the c-Raf-Mek-Erk assays are then listed.
Procedure: c-Raf-Mek-Erk ELISA
Potential inhibitors were firstly investigated at a concentration of 20 μg/ml in initial single-dose determinations on 96-well microtiter plates (MTPs). Substances with >70% inhibition were employed for dose-response studies.
Reconstitution of the c-Raf-Mek-Erk cascade was quantified with the aid of a cell-free ELISA.
A typical kinase assay was carried out in a final volume of 50 μl with in each case 20-150 ng of Raf, Mek, Erk protein, 1 mM ATP, 10 mM MgCl2, 150 mM NaCl, 25 mM beta-glycerophosphate, 25 mM Hepes pH 7.5. Before the kinase reaction, the test substances were each preincubated singly with each of the three kinase proteins at room temperature for 30 minutes. For the kinase reaction, the kinases preincubated with test substance were combined and incubated at 26° C. for 30 minutes. The reaction was stopped by a final concentration of 2% SDS and 10 minutes at 50° C. in a heating block.
For the immunodetection, the reaction mixtures were transferred to 96-well MTPs coated with anti-Erk Ab(K-23, Santa Cruz Biotechnology, incubated at room temperature for 60 minutes and washed 3× with TBST. Anti-phospho-Erk Ab (#9106, New England Biolabs) 1:500 in 50 μl of TBST/1% BSA, was added and incubated at 4° C. overnight. After the MTPs had been washed 3× with TBST, secondary anti-mouse IgG^POD conjugate (#NA931, Pharmacia) 1:2500 was added, incubated at room temperature for 1 h and again washed 3× with TBST. For colorimetric detection of the kinase reaction, 50 μl of OPD (o-phenyldiamine dihydrochloride) chromogen buffer were pipetted into each of the wells and incubated at 37° C. for 30 minutes. The colour reaction was then determined in an ELISA reader at 492 nm.
The experimental determination of dose-response plots took place using the same experimental design with 10 semilogarithmically graded concentrations from 31.6 pM-100 μM. The IC50 values were calculated in GraphPadPrism.

[1] = inhibition of Erk phosphorylation, 1 mM ATP, 10 concentrations 31.6 pM-100 μM, read-out: IC50
[2] = read-out: IC50 values, inhibition of Erk phosphorylation

| SMILES | IC50 (c-Raf-Mek-Erk cascade; [1]) [µM] | also measured |
| --- | --- | --- |
| C=CCNC(=S)Nc1ccc2ncc(-c3ccccc3)nc2n1 [Example 1, 1-allyl-3-(3-phenylpyrido[2,3-b]pyrazin-6-yl)thiourea] | ~1 | – |
| C=CCNC(=S)Nc1ccc2ncc(-c3ccc4ccccc4c3)nc2n1 [Example 2, 1-Allyl-3-(3-naphthalen-2-ylpyrido[2,3-b]pyrazin-6-yl)thiourea] | 16 | – |
| C=CCNC(=S)Nc1ccc2ncc(-c3ccc(OC)cc3)nc2n1 [Example 3, 1-Allyl-3-[3-(4-methoxyphenyl)pyrido[2,3-b]pyrazin-6-yl]thiourea] | ~1 | – |
| C=CCNC(=S)Nc1ccc2ncc(-c3ccc(O)cc3)nc2n1 [Example 4, 1-Allyl-3-[3-(4-hydroxyphenyl)pyrido[2,3-b]pyrazin-6-yl]thiourea hydrochloride] | – | IC50 (c-Raf-Mek-Erk cascade; [2]): 0.4 µM |
| C=C(C)CNC(=S)Nc1ccc2ncc(-c3ccccc3)nc2n1 [Example 5, 1-(2-Methylallyl)-3-(3-phenylpyrido[2,3-b]pyrazin-6-yl)thiourea] | ~1 | – |
| C=C(C)CNC(=S)Nc1ccc2ncc(-c3ccc4ccccc4c3)nc2n1 [Example 6, 1-(2-Methylallyl)-3-(3-naphthalen-2-ylpyrido[2,3-b]pyrazin-6-yl)thiourea] | ~100 | – |
| C=C(C)CNC(=S)Nc1ccc2ncc(-c3ccc(OC)cc3)nc2n1 [Example 7, 1-[3-(4-Methoxyphenyl)pyrido[2,3-b]pyrazin-6-yl]-3-(2-methylallyl)thiourea] | 43 | – |
| O=[N+]([O-])c1ccc(NC(=S)Nc2ccc3ncc(-c4ccc5ccccc5c4)nc3n2)cc1 [Example 8, 1-(3-Naphthalen-2-ylpyrido[2,3-b]pyrazin-6-yl)-3-(4-nitrophenyl)thiourea] | > 100 | – |
| COc1ccc(-c2cnc3ccc(NC(=S)Nc4ccc([N+](=O)[O-])cc4)nc3n2)cc1 [Example 9, 1-[3-(4-Methoxyphenyl)pyrido[2,3-b]pyrazin-6-yl]-3-(4-nitrophenyl)thiourea] | > 100 | – |
| CC(C)(C)NC(=S)Nc1ccc2ncc(-c3ccccc3)nc2n1 [Example 10, 1-tert-Butyl-3-(3-phenylpyrido[2,3-b]pyrazin-6-yl)thiourea] | > 100 | – |
| S=C(Nc1ccc2ncc(-c3ccccc3)nc2n1)NC1CC1 [Example 11, 1-Cyclopropyl-3-(3-phenylpyrido[2,3-b]pyrazin-6-yl)thiourea] | 0.9 | – |
| CNC(=S)Nc1ccc2ncc(-c3ccccc3)nc2n1 [Example 12, 1-Methyl-3-(3-phenylpyrido[2,3-b]pyrazin-6-yl)thiourea] | – | IC50 (c-Raf-Mek-Erk cascade; [2]): 0.4 µM |
| S=C(NCc1ccccc1)Nc1ccc2ncc(-c3ccccc3)nc2n1 [Example 13, 1-Benzyl-3-(3-phenylpyrido[2,3-b]pyrazin-6-yl)thiourea] | > 100 | – |
| Fc1ccc(NC(=S)Nc2ccc3ncc(-c4ccccc4)nc3n2)cc1 [Example 14, 1-(4-Fluorophenyl)-3-(3-phenylpyrido[2,3-b]pyrazin-6-yl)thiourea] | ~50 | – |
| C#CCNC(=S)Nc1ccc2ncc(-c3ccc(O)cc3)nc2n1 [Example 24, 1-[3-(4-Hydroxyphenyl)pyrido[2,3-b]pyrazin-6-yl]-3-prop-2-ynylthiourea] | – | melting point: 350 °C (dec.) |
| CC=CNC(=S)Nc1ccc2nc(-c3ccc(O)cc3)c(-c3ccc(O)cc3)nc2n1 [Example 28, 1-[2,3-Bis(4-hydroxyphenyl)pyrido[2,3-b]pyrazin-6-yl]-3-(propenyl)thiourea] | – | melting point: 240 °C (dec.) |
| Cc1ccc(NC(=O)Nc2ccc3ncc(-c4ccccc4)nc3n2)cc1 [Example 33, 1-(3-Phenylpyrido[2,3-b]pyrazin-6-yl)-3-p-tolylurea] | > 100 | – |
| O=C(Nc1ccc(Cl)c(C(F)(F)F)c1)Nc1ccc2ncc(-c3ccccc3)nc2n1 [Example 34, 1-(4-Chloro-3-trifluoromethylphenyl)-3-(3-phenylpyrido[2,3-b]pyrazin-6-yl)urea] | > 100 | – |
| O=C(NCCN1CCOCC1)Nc1ccc2ncc(-c3ccccc3)nc2n1 [Example 35, 1-(2-Morpholin-4-ylethyl)-3-(3-phenylpyrido[2,3-b]pyrazin-6-yl)urea] | 15 | – |
